Read-outs that look alike come from different tables or passages of the source. Residues, ends and D or L forms follow the SMILES beside them.
How the values were obtained:
[1] = system: SARS-CoV-2; test: microbe, parasite or virus in culture; type: cell-based
[2] = molecular target: T1, TMPRSS2 (Homo sapiens, UniProt O15393); details: HeLa-ACE2 cells, 120 μM
Experimental: HeLa-ACE2 cells were transiently transfected with empty vector (V) or increasing cDNA ratios of V5-tagged WT spike protein to TMPRSS2 (spike-V5:TMPRSS2) as indicated and 24 h later incubated for an additional 24 h in serum-free media containing 120 μM Camostat (+) or control DMSO (−) (FIG. 12A). Immunoblot of the 24 h conditioned media (concentrated 10-fold) was first probed for S1 and S1′ using an antibody against S1-subunit (GTX135356), stripped and next probed for sACE2 (ab108252) and mature TMPRSS2m (14437-1-AP) (upper panel). Cell lysates were immunoblotted for spike protein (V5-mAb), ACE2 (ab108252) and β-Actin (lower panel). HeLa-ACE2 cells were transiently transfected for 48 h with empty vector (V), TMPRSS2, and V5-tagged spike protein (S) alone or in combination with TMPRSS2 (S+TMPRSS2) in a ratio of 1:0.7 (FIG. 12B). For each condition, 1 ml of 24h serum free conditioned media was immunoprecipitated with 2 μg goat polyclonal ACE2 antibody (AF933, R&D) and 60 μl TrueBlot anti-goat Ig IP beads (00-8844-25; Rockland) and analyzed by western blot first for S1 and S1′ (GTX135356) and next for sACE2 (rabbit MAB; ab108252) (upper right panels). For reference, 50% of the media before immunoprecipitation (concentrated 10-fold) (input) was similarly analyzed (upper left panels). Immunoblots of the cell lysates (spike protein: V5-mAb) are also shown (lower panels).
To confirm that S2a, and S2b are generated by TMPRSS2 activity in the ER, HeLa-ACE2 cells were incubated with 120 μM Camostat, known to inhibit TMPRSS2.

[3] = system: SARS-CoV-2; type: cell-based
[4] = system: endogenous furin-like enzymes; type: cell-based; details: HeLa-ACE2 cells
[5] = molecular target: T2, furin (Homo sapiens, UniProt P09958); test: Biochemical PC-inhibition assay, substrate FAM-[…]-TAMRA; set-up: furin (108-574-Tev-Flag-6His); Tev site (C); Flag (C); 6His (C); made in house; host or cells: BacMam transduced CHO cells
Target sequence in this assay (P09958 108-574): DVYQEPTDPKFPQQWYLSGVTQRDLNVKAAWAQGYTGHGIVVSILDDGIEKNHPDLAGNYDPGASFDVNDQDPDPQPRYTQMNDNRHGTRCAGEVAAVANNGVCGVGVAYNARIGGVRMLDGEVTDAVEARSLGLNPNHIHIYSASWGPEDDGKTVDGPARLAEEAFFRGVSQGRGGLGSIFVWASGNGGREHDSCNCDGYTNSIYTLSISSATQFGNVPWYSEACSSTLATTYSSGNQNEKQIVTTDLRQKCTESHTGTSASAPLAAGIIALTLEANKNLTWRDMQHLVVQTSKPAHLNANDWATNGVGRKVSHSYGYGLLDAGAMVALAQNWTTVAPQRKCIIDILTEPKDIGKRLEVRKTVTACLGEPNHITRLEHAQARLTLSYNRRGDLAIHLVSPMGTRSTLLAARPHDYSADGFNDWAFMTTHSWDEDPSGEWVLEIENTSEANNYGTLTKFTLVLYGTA
Experimental: Biochemical assay: The proprotein convertases furin (108-574-Tev-Flag-6His), PC5A (PCSK5; 115-63-Tev-Flag-6His), PACE4 (PCSK6; 150-693-Tev-Flag-6His), and PC7 (PCSK7; 142-634-Tev-Flag-6His) enzymes were purified from BacMam transduced CHO cells. Reactions were performed in black 384-well polystyrene low volume plates (Greiner) at a final volume of 10 μL. […] The plates were centrifuged at 500×g for 1 minute and incubated at room temperature for two hours. Enzyme inhibition was then quantified using an Envision instrument (PerkinElmer). Data were normalized to maximal inhibition determined by 1 μM Decanoyl-Arg-Val-Lys-Arg-Chloromethylketone (Calbiochem #344930).

[6] = system: endogenous furin-like enzymes; type: cell-based, African green monkey; details: VeroE6 cells; Compound 192/219 at 0.3, 1 or 10 μM, RVKR at 50 μM; 24 h
[7] = molecular target: T2, furin; test: biochemical
Target sequence in this assay (P09958 108-794): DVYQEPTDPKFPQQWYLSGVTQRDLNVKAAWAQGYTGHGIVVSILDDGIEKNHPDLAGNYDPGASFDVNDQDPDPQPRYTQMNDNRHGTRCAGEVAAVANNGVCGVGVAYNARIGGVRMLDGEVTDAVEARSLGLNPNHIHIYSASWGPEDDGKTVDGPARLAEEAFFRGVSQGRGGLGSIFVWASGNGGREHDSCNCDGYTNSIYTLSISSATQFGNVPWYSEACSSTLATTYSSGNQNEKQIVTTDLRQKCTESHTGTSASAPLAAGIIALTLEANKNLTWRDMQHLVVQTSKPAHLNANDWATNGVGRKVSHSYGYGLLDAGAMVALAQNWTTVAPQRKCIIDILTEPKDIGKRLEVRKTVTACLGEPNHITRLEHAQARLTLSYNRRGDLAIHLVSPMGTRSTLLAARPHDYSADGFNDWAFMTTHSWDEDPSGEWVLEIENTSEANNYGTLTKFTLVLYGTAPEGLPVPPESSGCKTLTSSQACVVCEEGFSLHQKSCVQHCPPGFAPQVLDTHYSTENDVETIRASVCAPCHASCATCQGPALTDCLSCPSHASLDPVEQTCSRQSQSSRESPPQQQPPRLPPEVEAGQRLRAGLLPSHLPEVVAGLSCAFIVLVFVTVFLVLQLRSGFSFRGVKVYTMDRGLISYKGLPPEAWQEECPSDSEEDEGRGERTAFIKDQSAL
Experimental: Furin and TRMPSS2 fluorogenic assays: Recombinant furin was purchased from BioLegend (#719406), TRMPSS2 from Cusabio and the DABCYLGlu-EDANS labelled peptides encompassing the different cleavage sites (Supplementary Table 1) were purchased from Genscript. Reactions were performed at room temperature in black 384-well polystyrene low volume plates (CELLSTAR-Greiner Bio-One #784476) at a final volume of 15 μL. […] Cleavage of the synthetic peptides was quantitated by determining the increase of EDANS (493 nM) fluorescence following release of the DABCYL quencher, which is excited at 335 nM using a Safire 2 Tecan fluorimeter. The fluorescence was followed during 90 min, and the enzymatic activity was deduced by measurement of the increase of fluorescence during the linear phase of the reaction. Each reaction was performed in triplicate and the standard deviation was calculated using Excel-ecart type function

[8] = system: endogenous furin-like enzymes; type: cell-based, Chinese hamster; details: BHK21 cells; Compound 192/219 at 0.3, 1 or 10 μM, RVKR at 50 μM; 24 h
[9] = system: HIV particles pseudotyped with SARS-CoV-2 S; type: cell-based
[10] = system: endogenous furin-like enzymes; type: cell-based, human; details: A549 cells; Compound 192/219 at 0.3, 1 or 10 μM, RVKR at 50 μM; 24 h
[11] = system: HeLa cells co-expressing the S-protein with ACE2; test: Immunocytochemistry of HeLa cells co-expressing S-protein and ACE2 (syncytia, localization); type: cell-based; details: 1 μM
Experimental: Immunocytochemical analyses of HeLa cells co-expressing the S-protein or μS1/S2 with ACE2 in the absence or presence of 1 μM Compound 192 was also investigated under cell-permeabilization (P; V5 and ACE2 antibodies) and non-permeabilization (NP; S2 and ACE2 antibodies) conditions (FIGS. 14, 15). In the absence of Compound 192, the S-protein and ACE2 co-localized abundantly at the cell surface (FIG. 14-a). HeLa cells expressing both S-protein and ACE2 formed many syncytia, associated with reduced cell surface expression of the S-protein, and an even greater reduction of ACE2 (FIG. 14-b).
Cell culture and transfection were performed on glass coverslips. Cells were washed twice with PBS and fixed with fresh 4% paraformaldehyde for 10 min at room temperature. Following washes, cells were either non-permeabilized or permeabilized with 0.2% Triton X-100 in PBS containing 2% BSA for 5 min, washed, and then blocking was performed with PBS containing 2% BSA for 1 h. Cells were incubated with primary antibodies overnight at 4° C. using an antibody against V5 (mouse monoclonal R960-25; 1:1000; Invitrogen), Spike (mouse monoclonal GTX632604; 1:500; GeneTex) and ACE2 (goat polyclonal AF933; 1:500; RnDsystems). Following wash, corresponding species-specific Alexa-Fluor (488 or 555)-tagged antibodies (Molecular Probes) were incubated for 1 h at room temperature. […]

[12] = system: SARS-CoV-2 Spike ACE2-dependent cell-to-cell fusion; test: microbe, parasite or virus in culture; type: cell-based; details: Severe acute respiratory syndrome coronavirus 2; 300 nM
[13] = molecular target: T3, PC7 (PCSK7) (Homo sapiens, UniProt Q16549); test: Biochemical PC-inhibition assay, substrate FAM-[…]-TAMRA
T3 construct: PC7 (PCSK7; 142-634-Tev-Flag-6His); Tev site (C); Flag (C); 6His (C); made in house; host or cells: BacMam transduced CHO cells
Experimental: (§1) Biochemical assay: The proprotein convertases furin (108-574-Tev-Flag-6His), PC5A (PCSK5; […]-Tev-Flag-6His), PACE4 (PCSK6; 150-693-Tev-Flag-6His), and PC7 (PCSK7; 142-634-Tev-Flag-6His) enzymes were purified from BacMam transduced CHO cells. […] 0.05 μl of each concentration was transferred to the corresponding well of an assay plate, and then 5 μl of enzyme (furin, PCSK5, PCSK6, and PCSK7) in assay buffer (100 mM HEPES pH 7.5, 1 mM CaCl2) and 0.005% Triton X-100) was added using a Multidrop Combi (Thermo) to the compound plates to give a final protein concentration of 0.02, 0.5, 2.5, and 1.0 nM respectively. The plates were mixed by inversion, and following a 30 min preincubation of enzyme with compound at room temperature (˜22° C.), the substrate FAM-[…] -TAMRA (AnaSpec #808143, 5 μl of a 1, 0.25, 0.20, and 0.5 μM solution in assay buffer for furin, PCSK5, PCSK6, and PCSK7 respectively) was added using a Multidrop Combi to the entire assay plate. The plates were centrifuged at 500×g for 1 minute and incubated at room temperature for two hours. Enzyme inhibition was then quantified using an Envision instrument (PerkinElmer). Data were normalized to maximal inhibition determined by 1 μM Decanoyl-Arg-Val-Lys-Arg-Chloromethylketone (Calbiochem #344930). Golgi imaging assay: This assay uses an image-based platform to evaluate the intracellular activity of furin inhibitors. Reactions were performed in black 384-well, tissue culture-treated, clear bottom plates (Greiner). Compounds under analysis were dissolved in DMSO (1.0 mM) and serially diluted 1 to 3 with DMSO through eleven dilutions. This creates a final compound concentration range from 0.00017 to 10 μM, and 0.1 μL of each concentration was transferred to the corresponding well of the assay plate.

[14] = molecular target: T4, PACE4 (PCSK6) (Homo sapiens, UniProt P29122); test: as above
T4 construct: PACE4 (PCSK6; 150-693-Tev-Flag-6His); Tev site (C); Flag (C); 6His (C); made in house; host or cells: BacMam transduced CHO cells
Experimental: as §1

[15] = molecular target: T5, PC5A (PCSK5) (Homo sapiens, UniProt Q92824); test: as above
T5 construct: fused on or other part: C-terminal Tev site, Flag tag and 6His tag
Experimental: as §1

[16] = molecular target: T1, TMPRSS2; type: cell-based; set-up: expressed in transfected cells; host or cells: HeLa; details: HeLa cells
[17] = molecular target: T6, endogenous furin (Homo sapiens, UniProt P09958); test: Cell-based Golgi imaging assay of U2OS cells (BMP10-mimic cleavage)
T6 construct: the endogenous protease cleaves GFP from its N-acetylgalactosaminyltransferase-2 Golgi tether; endogenous in cells; host or cells: U2OS
Experimental: Biochemical assay: The proprotein convertases furin (108-574-Tev-Flag-6His), PC5A (PCSK5; […]-Tev-Flag-6His), PACE4 (PCSK6; 150-693-Tev-Flag-6His), and PC7 (PCSK7; 142-634-Tev-Flag-6His) enzymes were purified from BacMam transduced CHO cells. […] 0.05 μl of each concentration was transferred to the corresponding well of an assay plate, and then 5 μl of enzyme (furin, PCSK5, PCSK6, and PCSK7) in assay buffer (100 mM HEPES pH 7.5, 1 mM CaCl2) and 0.005% Triton X-100) was added using a Multidrop Combi (Thermo) to the compound plates to give a final protein concentration of 0.02, 0.5, 2.5, and 1.0 nM respectively. […] Enzyme inhibition was then quantified using an Envision instrument (PerkinElmer). Data were normalized to maximal inhibition determined by 1 μM Decanoyl-Arg-Val-Lys-Arg-Chloromethylketone (Calbiochem #344930). […]
Cellular assay: Analyses were initiated by the addition of U2OS cells simultaneously transduced with a BacMam-delivered construct containing a Golgi-targeting sequence followed by a 12-amino acid furin/PCSK cleavage site from Bone Morphogenic Protein 10 (BMP10) and then GFP at the C terminus. […] In the absence of a furin/PCSK inhibitor, the endogenous protease cleaves GFP from its N-acetylgalactosaminyltransferase-2 Golgi tether, releasing GFP into the Golgi lumen where fluorescence is diluted below the threshold of assay sensitivity. […]

T4 sequence (P29122 150-693): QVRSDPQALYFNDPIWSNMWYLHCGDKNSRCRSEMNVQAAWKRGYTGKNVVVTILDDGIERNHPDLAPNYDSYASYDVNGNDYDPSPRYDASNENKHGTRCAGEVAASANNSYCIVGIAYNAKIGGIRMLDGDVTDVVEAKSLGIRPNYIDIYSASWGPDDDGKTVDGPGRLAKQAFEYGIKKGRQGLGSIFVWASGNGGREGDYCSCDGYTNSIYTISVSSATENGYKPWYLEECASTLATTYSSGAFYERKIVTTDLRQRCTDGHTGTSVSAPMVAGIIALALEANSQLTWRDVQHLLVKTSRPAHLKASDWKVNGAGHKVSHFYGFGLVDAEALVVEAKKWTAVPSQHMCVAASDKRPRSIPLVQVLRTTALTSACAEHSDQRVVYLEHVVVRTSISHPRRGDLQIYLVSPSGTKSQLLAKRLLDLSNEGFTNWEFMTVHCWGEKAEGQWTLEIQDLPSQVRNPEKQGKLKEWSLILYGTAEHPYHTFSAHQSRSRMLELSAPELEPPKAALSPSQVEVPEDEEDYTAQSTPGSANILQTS
T1 sequence (O15393 whole entry): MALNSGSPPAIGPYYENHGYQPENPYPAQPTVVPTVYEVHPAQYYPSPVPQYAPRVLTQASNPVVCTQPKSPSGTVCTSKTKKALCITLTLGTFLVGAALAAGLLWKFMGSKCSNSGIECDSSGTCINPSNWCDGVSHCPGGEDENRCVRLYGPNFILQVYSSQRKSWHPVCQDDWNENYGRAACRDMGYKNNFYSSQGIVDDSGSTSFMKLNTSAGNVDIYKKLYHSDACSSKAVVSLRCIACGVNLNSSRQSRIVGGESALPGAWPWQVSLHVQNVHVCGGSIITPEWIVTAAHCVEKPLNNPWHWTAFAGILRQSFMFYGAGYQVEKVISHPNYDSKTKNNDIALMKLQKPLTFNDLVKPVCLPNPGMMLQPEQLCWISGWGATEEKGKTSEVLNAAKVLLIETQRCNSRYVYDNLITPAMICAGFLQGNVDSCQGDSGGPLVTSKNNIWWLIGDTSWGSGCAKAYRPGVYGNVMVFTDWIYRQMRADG
T5 sequence (Q92824 115-601): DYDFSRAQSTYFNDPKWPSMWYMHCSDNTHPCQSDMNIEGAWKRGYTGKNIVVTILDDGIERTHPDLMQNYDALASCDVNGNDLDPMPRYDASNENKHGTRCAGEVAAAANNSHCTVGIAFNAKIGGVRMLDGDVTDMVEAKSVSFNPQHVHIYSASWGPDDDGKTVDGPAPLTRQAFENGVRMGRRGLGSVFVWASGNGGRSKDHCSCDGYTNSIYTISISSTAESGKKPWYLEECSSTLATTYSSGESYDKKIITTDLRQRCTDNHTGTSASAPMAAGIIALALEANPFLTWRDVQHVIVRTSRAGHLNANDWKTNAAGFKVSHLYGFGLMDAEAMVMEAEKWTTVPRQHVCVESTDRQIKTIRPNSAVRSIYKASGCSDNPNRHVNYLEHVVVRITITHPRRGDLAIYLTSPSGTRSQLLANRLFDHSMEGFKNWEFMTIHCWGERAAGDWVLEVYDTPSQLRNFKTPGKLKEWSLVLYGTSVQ
T3 sequence (Q16549 142-634): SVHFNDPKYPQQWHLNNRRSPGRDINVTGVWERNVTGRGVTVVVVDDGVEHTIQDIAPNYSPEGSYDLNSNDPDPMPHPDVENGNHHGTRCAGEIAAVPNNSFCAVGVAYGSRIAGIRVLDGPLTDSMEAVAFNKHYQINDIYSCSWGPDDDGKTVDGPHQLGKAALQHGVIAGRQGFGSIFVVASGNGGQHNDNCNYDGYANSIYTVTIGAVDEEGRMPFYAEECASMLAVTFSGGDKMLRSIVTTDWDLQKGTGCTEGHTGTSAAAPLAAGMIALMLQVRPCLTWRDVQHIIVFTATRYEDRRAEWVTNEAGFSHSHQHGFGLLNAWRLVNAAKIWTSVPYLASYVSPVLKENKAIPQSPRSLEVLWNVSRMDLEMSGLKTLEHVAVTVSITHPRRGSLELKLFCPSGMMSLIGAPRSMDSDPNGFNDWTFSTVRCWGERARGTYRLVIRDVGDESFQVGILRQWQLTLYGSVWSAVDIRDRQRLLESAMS
T6 sequence (P09958 108-794): as the sequence (P09958 108-794) above

## CN(C)C(=O)COC(=O)Cc1ccc(OC(=O)c2ccc(NC(=N)N)cc2)cc1 [Camostat]
[1]
  Viral replication, inhibitors individually: meaningfully reduce viral replication
[2]
  Generation of S1′: in large part
  Generation of sACE2: inhibited
[2]; increasing TMPRSS2
  Formation of S2a and S2b: prevented

## CC(=O)NCC1CCN(Cc2cc(Oc3cnc(N4CCN(CCC(C)C(=O)O)CC4)nc3)nc(-c3cc(Cl)cc(Cl)c3)c2)CC1 (stereo not shown) [Compound 192, 4-(4-(5-((4-((4-(acetamidomethyl)piperidin-1-yl)methyl)-6-(3,5-dichloro-phenyl)pyridin-2-yl)oxy)pyrimidin-2-yl)piperazin-1-yl)-2-methylbutanoic acid]
[3]
  Virus production in infected Vero E6 cells: modestly reduce virus production
[4]
  S1/S2 and S2′ processing by endogenous furin-like enzymes: blocked
[4]; 300 nM
  Inhibition of S1/S2 and S2′ processing: almost complete inhibition
[5]
  IC50: ~7 nM
[6]
  Inhibition of processing of pro-(S) protein to active (S)-protein: somewhat
[1]
  Antiviral effects and selectivity index relative to Compound 93: comparable
  SARS-CoV-2 infection in Calu-3 cells (virus titers): strongly reduce
  Viral replication, inhibitors individually: meaningfully reduce viral replication
  Viral titers at 12, 24 and 48h post-infection: significantly decreased
[7]
  IC50: 4 ± 0.7 nM
[8]
  Inhibition of processing of pro-(S) protein to active (S)-protein: Inhibition was observed
[9]
  Viral entry in Calu-3 of pseudovirions packaged in presence of inhibitor: block viral entry
[10]
  Inhibition of processing of pro-(S) protein to active (S)-protein: less inhibition
[11]
  Phenotype of S-expressing HeLa cells (syncytia, S and ACE2 localization): phenocopy those expressing μS1/S2
[12]
  inhibition at 0.3 µM: > 60%
[13]
  IC50: ~7 nM
[14]
  IC50: ~7 nM
[15]
  IC50: ~7 nM
[16]
  Generation of S2a and S2b by TMPRSS2: none of the compounds affected

## CC(=O)NCC1CCN(Cc2cc(Oc3ccc(N4CCN(CCC(=O)O)CC4)nc3)nc(-c3cc(Cl)cc(Cl)c3)c2)CC1 [Compound 219, 3-(4-(5-((4-((4-(acetamidomethyl)piperidin-1-yl)methyl)-6-(3,5-dichlorophenyl)pyridin-2-yl)oxy)pyridin-2-yl)piperazin-1-yl)propanoicacid]
[3]
  Virus production in infected Vero E6 cells: modestly reduce virus production
[4]
  S1/S2 and S2′ processing by endogenous furin-like enzymes: blocked
[5]
  IC50: ~7 nM
[6]
  Inhibition of processing of pro-(S) protein to active (S)-protein: somewhat
[1]
  Antiviral effects and selectivity index relative to Compound 93: comparable
  SARS-CoV-2 infection in Calu-3 cells (virus titers): strongly reduce
  Viral titers at 12, 24 and 48h post-infection: significantly decreased
[8]
  Inhibition of processing of pro-(S) protein to active (S)-protein: Inhibition was observed
[9]
  Viral entry in Calu-3 of pseudovirions packaged in presence of inhibitor: block viral entry
[10]
  Inhibition of processing of pro-(S) protein to active (S)-protein: less inhibition
[12]
  inhibition at 0.3 µM: > 60%
[13]
  IC50: ~7 nM
[14]
  IC50: ~7 nM
[15]
  IC50: ~7 nM
[16]
  Generation of S2a and S2b by TMPRSS2: none of the compounds affected

## CCCCCCCCCC(=O)N[C@@H](CCCNC(=N)N)C(=O)N[C@H](C(=O)N[C@@H](CCCCN)C(=O)N[C@@H](CCCNC(=N)N)C(=O)CCl)C(C)C [RVKR-cmk, Decanoyl-Arg-Val-Lys-Arg-CMK, reference compound] (HELM PEPTIDE1{[CCCCCCCCCC(=O)[*:2]].R.V.K.R.[ClC[*:1]]}$$$$V2.0)
[5]
  IC50: ~9 nM
[13]
  IC50: ~9 nM
[14]
  IC50: ~9 nM
[15]
  IC50: ~9 nM
[17]
  IC50: 5 nM

Reference: US20230149401A1 (priority 2020, published 2023)
